Reference: patent publication US10988523B2, “Modified lipidated Relaxin B chain peptides and their therapeutic use” (Sanofi, priority 2018, dated 2021)
Converted amounts (≈) assume the structure as drawn. Where two headings read alike, the source gives them in different places. *1 amine or outer side, *2 acyl side, *3 side chain or, on linkers, in order; H or OH if unused. Where a SMILES comes first, the peptide text is derived from it. Side-chain parts run from the residue outwards. [ ]: non-standard residue; d: D form. The star is where a group is joined. PEG12 = NCCOCCOCCOCCOCCOCCOCCOCCOCCOCCOCCOCCOCCC(=O)O; γGlu = O=C(O)[C@H](CCC(=O)[*:2])N[*:1]; Stearoyl = CCCCCCCCCCCCCCCCCC(=O)*; Palmitoyl = CCCCCCCCCCCCCCCC(=O)*; αMeK = C[C@](N)(CCCCN)C(=O)O; Nle = CCCC[C@H](N)C(=O)O; AEEA = NCCOCCOCC(=O)O; Aib = CC(C)(N)C(=O)O

How the values were obtained:
RXFP1 = molecular target: T1, RXFP1 (Homo sapiens, UniProt Q9HBX9); assay: OVCAR5 cAMP assay (HTRF), RXFP1 agonist activity; type: cell-based; settings: for EC50: OVCAR5 cells, cAMP HTRF, read-out: EC50 (nM), OVCAR 5 cells (cAMP); for Emax: OVCAR-5, maximal cAMP relative to H2-relaxin maximum (100%), read-out: EMax, OVCAR 5 cells (cAMP)
T1 construct: OVCAR5 cells expressing endogenous RXFP1; endogenous in cells; host or cells: OVCAR5 cells
T1 sequence (Q9HBX9 1-757): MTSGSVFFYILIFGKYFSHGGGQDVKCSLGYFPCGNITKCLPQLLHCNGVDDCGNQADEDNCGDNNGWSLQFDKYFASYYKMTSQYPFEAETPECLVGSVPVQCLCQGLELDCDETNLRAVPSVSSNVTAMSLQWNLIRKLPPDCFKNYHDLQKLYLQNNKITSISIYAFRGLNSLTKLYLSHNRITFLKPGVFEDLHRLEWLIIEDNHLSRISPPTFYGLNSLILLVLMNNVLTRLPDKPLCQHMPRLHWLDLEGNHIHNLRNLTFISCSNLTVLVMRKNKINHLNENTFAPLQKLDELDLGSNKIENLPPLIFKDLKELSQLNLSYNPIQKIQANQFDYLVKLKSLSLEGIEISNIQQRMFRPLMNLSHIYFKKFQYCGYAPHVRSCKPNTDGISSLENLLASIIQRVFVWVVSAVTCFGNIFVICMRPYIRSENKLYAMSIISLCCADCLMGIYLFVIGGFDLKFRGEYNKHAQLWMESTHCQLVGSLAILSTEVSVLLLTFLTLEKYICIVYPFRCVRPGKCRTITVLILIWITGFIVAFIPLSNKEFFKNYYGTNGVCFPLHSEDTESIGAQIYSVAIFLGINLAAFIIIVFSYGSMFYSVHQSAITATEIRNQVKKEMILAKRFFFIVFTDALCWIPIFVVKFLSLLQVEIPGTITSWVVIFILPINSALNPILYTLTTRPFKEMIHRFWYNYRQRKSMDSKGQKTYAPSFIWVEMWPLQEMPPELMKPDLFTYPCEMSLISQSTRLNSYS
Outline: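 OVCAR5 cells (endogenous RXFP1) pretreated 40 min at 37° C with 1 mM IBMX, then exposed to peptides in serum-free medium for 30 min at 37° C. Lysate cAMP read by HTRF; EC50 from variable-slope sigmoidal fit; Emax as % of H2-relaxin maximal cAMP in same run.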

[1] = Solubility testing of peptides in buffer; type: physicochemical
Procedure: Prior to the testing of solubility of a peptide batch, its purity (HPLC-UV) was determined.
Acetate Buffer 50 mM pH4.5: 0.75 g […], 3H2O (Sigma 57545)+0.35 ml CH3CO2H 100% solution dissolved in Millipore water, adjusted to pH with diluted (1:1) CH3CO2H and diluted to 250 ml with Millipore water.
In a 4 ml Ependorph vial, an accurately weighed sample of compound was diluted in study media to obtain target concentration of 2, 6 or 10 mg/ml of pure compound. The sample vials were shacked (rock 'roll shaker) for ˜19 h. 3004, Aliquots ( ) were filtered through a Millipore “Solvinert” plate (0.45 μm—PTFE hydrophilic).
pH was measured with a micro electrode
Waters Acquity UPLC System with DAD detector
Column: Waters Peptide Column CSH C18 (130 Å; 1.7 μm; 50*2.1 mm)
Column temperature: 60° C.
Full loop (about 5 μL)—overfill factor 5
Weak et Strong wash: H2O/ACN (75/25; V/V); Seal wash: H2O/IsOH (95/5; V/V). Mobile phase:
Solvent A: 0.05% TFA in H2O; Solvent B: 0.035% TFA in CH3CN
Gradient: from 0 to 12 min B=2% to 60%, from 12 to 14 min B=60% to 100%. Column washing 100% B 1 min, column equilibration 2% B 2.5 min.
UV detector: wavelength: 220 nm.

[2] = Pharmacokinetic (PK) determination after i.v. or s.c. administration to rats; type: in vivo, Sprague Dawley rats; settings: Rat PK; for T½ / C0 / half-life: 1 mg/kg i.v.; for C0 / half-life: iv; for C0: extrapolated plasma concentration at t=0, read-out: C0; for Cmax / Tmax: 3 mg/kg s.c.; for bioavailability: subcutaneous; for half-life: read-out: T½ (converted)
Outline: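 Sprague Dawley rats received peptide in PBS at 1 mg/kg i.v. or 3 mg/kg s.c., dose corrected for salts, solvent and purity. Plasma analysed by LC/MS after protein precipitation; non-compartmental PK, BLQ values set to zero, F% as dose-corrected s.c./i.v. AUC ratio.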

[3] = acetate buffer, pH 4.5, read-out: Solubility Acetate buffer pH 4.5
[4] = phosphate buffer, pH 7.4, read-out: Solubility phosphate buffer pH 7.4
[5] = Sprague Dawley, plasma, 3 mg/kg s.c. vs 1 mg/kg i.v., dose-corrected AUC ratio
[6] = acetate buffer 50 mM pH 4.5, target solubility 10.0 mg/ml, read-out: Solubility Acetate buffer pH 4.5
[7] = phosphate buffer 50 mM pH 7.4, target solubility 10.0 mg/ml, read-out: Solubility phosphate buffer pH 7.4

| Structure (SMILES) | EC50 (RXFP1) [nM] | Emax (RXFP1) [%] | solubility [1, 3] [µg/mL] | solubility [1, 4] [µg/mL] | T½ [2] [h] | C0 ([2]; Sprague Dawley) [nM] | Cmax ([2]; Sprague Dawley, plasma, sc) [nM] | Tmax ([2]; Sprague Dawley, plasma, sc) [h] | bioavailability [2, 5] [%] | half-life ([2]; Sprague Dawley, plasma) [h] | solubility ([1]; acetate buffer 50 mM pH 4.5, target solubility 15.0 mg/ml, read-out: Solubility Acetate buffer pH 4.5) [µg/mL] | Cmax [2] [nM] | F % ([2]; 3 mg/kg s.c. vs 1 mg/kg i.v., dose-corrected AUC ratio) [%] | solubility [1, 6] [µg/mL] | solubility [1, 7] [µg/mL] |
| --- | --- | --- | --- | --- | --- | --- | --- | --- | --- | --- | --- | --- | --- | --- | --- |
| CCCCCCCCCCCCCCCCCC(=O)N[C@@H](CCC(=O)N[C@@H](CCC(=O)N[C@@H](CCC(=O)NCCCC[C@H](NC(=O)CCOCCOCCOCCOCCOCCOCCOCCOCCOCCOCCOCCOCCNC(=O)[C@H](CCCCNC(C)=O)NC(=O)[C@H](CCCCN)NC(=O)[C@H](CCCNC(=N)N)NC(=O)C(C)(C)NC(=O)[C@H](CO)NC(=O)[C@H](Cc1c[nH]c2ccccc12)NC(=O)[C@@H](NC(=O)[C@H](CO)NC(=O)[C@H](CCCC)NC(=O)CNC(=O)[C@H](CCC(=O)O)NC(=O)C(C)(C)NC(=O)C(C)(C)NC(=O)[C@@H](NC(=O)[C@H](CCCCNC(C)=O)NC(=O)[C@H](C)NC(=O)[C@H](CCCNC(=N)N)NC(=O)[C@@H](NC(=O)[C@H](CCCCN)NC(=O)[C@H](CCC(=O)O)NC(=O)[C@H](CCCNC(=N)N)NC(=O)CNC(=O)[C@H](CCC(=O)O)NC(=O)[C@H](CC(C)C)NC(C)=O)C(C)C)[C@@H](C)CC)[C@@H](C)O)C(N)=O)C(=O)O)C(=O)O)C(=O)O [compound 33] (Ac-LEGREKVRAK(Ac)I[Aib][Aib]EG[Nle]STWS[Aib]RKK(Ac)[PEG12]K([γGlu-γGlu-γGlu-Stearoyl])-NH2) | 0.61 | 100 | 5400 (≈ 1280 µM) | 5400 (≈ 1280 µM) | 4.30 | 4200 | 2500 | 8 | 60 |  |  |  |  |  |  |
| CCCCCCCCCCCCCCCC(=O)N[C@@H](CCC(=O)N[C@@H](CCC(=O)N[C@@H](CCC(=O)NCCOCCOCC(=O)NCCOCCOCC(=O)NCCCC[C@H](NC(=O)[C@H](CCCCN)NC(=O)[C@H](CCCNC(=N)N)NC(=O)C(C)(C)NC(=O)[C@H](CO)NC(=O)[C@H](Cc1c[nH]c2ccccc12)NC(=O)[C@@H](NC(=O)[C@H](CO)NC(=O)[C@H](CCCC)NC(=O)CNC(=O)[C@H](CCC(=O)O)NC(=O)C(C)(C)NC(=O)C(C)(C)NC(=O)[C@@H](NC(=O)[C@H](CCC(N)=O)NC(=O)[C@H](C)NC(=O)[C@H](CCCNC(=N)N)NC(=O)[C@@H](NC(=O)[C@H](CCCCN)NC(=O)[C@H](CCC(=O)O)NC(=O)[C@H](CCCNC(=N)N)NC(=O)CNC(=O)[C@H](CCC(=O)O)NC(=O)[C@H](CC(C)C)NC(C)=O)C(C)C)[C@@H](C)CC)[C@@H](C)O)C(N)=O)C(=O)O)C(=O)O)C(=O)O [compound 58] (Ac-LEGREKVRAQI[Aib][Aib]EG[Nle]STWS[Aib]RKK([AEEA-AEEA-γGlu-γGlu-γGlu-Palmitoyl])-NH2) |  | 83 | 5700 (≈ 1550 µM) | 5700 (≈ 1550 µM) |  | 4020 | 1340 | 6 | 55 | 7.9 |  |  |  |  |  |
| CCCCCCCCCCCCCCCCCC(=O)N[C@@H](CCC(=O)N[C@@H](CCC(=O)N[C@@H](CCC(=O)NCCOCCOCC(=O)NCCOCCOCC(=O)NCCOCCOCC(=O)NCCCC[C@H](NC(=O)[C@H](CCCCNC(C)=O)NC(=O)[C@H](CCCCN)NC(=O)[C@H](CCCNC(=N)N)NC(=O)C(C)(C)NC(=O)[C@H](CO)NC(=O)[C@H](Cc1c[nH]c2ccccc12)NC(=O)[C@@H](NC(=O)[C@H](CO)NC(=O)[C@H](CCCC)NC(=O)CNC(=O)[C@H](CCC(=O)O)NC(=O)C(C)(C)NC(=O)C(C)(C)NC(=O)[C@@H](NC(=O)[C@H](CCCCNC(C)=O)NC(=O)[C@H](C)NC(=O)[C@H](CCCNC(=N)N)NC(=O)[C@@H](NC(=O)[C@H](CCCCN)NC(=O)[C@H](CCC(=O)O)NC(=O)[C@H](CCCNC(=N)N)NC(=O)CNC(=O)[C@H](CCC(=O)O)NC(=O)[C@H](CC(C)C)NC(C)=O)C(C)C)[C@@H](C)CC)[C@@H](C)O)C(N)=O)C(=O)O)C(=O)O)C(=O)O [compound 81] (Ac-LEGREKVRAK(Ac)I[Aib][Aib]EG[Nle]STWS[Aib]RKK(Ac)K([AEEA-AEEA-AEEA-γGlu-γGlu-γGlu-Stearoyl])-NH2) | 0.22 | 84 |  |  | 3.90 | 2600 |  | 8 |  |  | 11900 (≈ 2920 µM) | 1500 | 74 |  |  |
| CCCCCCCCCCCCCCCC(=O)N[C@@H](CCC(=O)N[C@@H](CCC(=O)N[C@@H](CCC(=O)N[C@@H](CCC(=O)NCCCC[C@H](NC(=O)COCCOCCNC(=O)COCCOCCNC(=O)COCCOCCNC(=O)COCCOCCNC(=O)[C@H](CCCCNC(C)=O)NC(=O)[C@H](C)NC(=O)[C@H](CCCNC(=N)N)NC(=O)[C@](C)(CCCCN)NC(=O)[C@H](CO)NC(=O)[C@H](Cc1ccccc1)NC(=O)[C@@H](NC(=O)[C@H](CO)NC(=O)[C@H](CCCC)NC(=O)CNC(=O)[C@H](CCC(=O)O)NC(=O)C(C)(C)NC(=O)C(C)(C)NC(=O)[C@@H](NC(=O)[C@H](CCCCNC(C)=O)NC(=O)[C@H](C)NC(=O)[C@H](CCCNC(=N)N)NC(=O)[C@@H](NC(=O)[C@H](CCCCN)NC(=O)[C@H](CCC(=O)O)NC(=O)[C@H](CCCNC(=N)N)NC(=O)CNC(=O)[C@H](CCC(=O)O)NC(=O)[C@H](CC(C)C)NC(C)=O)C(C)C)[C@@H](C)CC)[C@@H](C)O)C(N)=O)C(=O)O)C(=O)O)C(=O)O)C(=O)O [compound 150] (Ac-LEGREKVRAK(Ac)I[Aib][Aib]EG[Nle]STFS[αMeK]RAK(Ac)[AEEA][AEEA][AEEA][AEEA]K([γGlu-γGlu-γGlu-γGlu-Palmitoyl])-NH2) | 0.07 | 92 |  |  |  | 3600 | 2100 | 8 | 76 | 5.7 |  |  |  | 1500 (≈ 351 µM) | > 10000 |
| CCCCCCCCCCCCCCCC(=O)N[C@@H](CCC(=O)N[C@@H](CCC(=O)N[C@@H](CCC(=O)N[C@@H](CCC(=O)NCCCC[C@H](NC(=O)COCCOCCNC(=O)COCCOCCNC(=O)COCCOCCNC(=O)COCCOCCNC(=O)[C@H](CCCCNC(C)=O)NC(=O)[C@H](C)NC(=O)[C@H](CCCNC(=N)N)NC(=O)[C@](C)(CCCCN)NC(=O)[C@H](CO)NC(=O)[C@H](Cc1ccccc1)NC(=O)[C@@H](NC(=O)[C@H](CO)NC(=O)[C@H](CCC(N)=O)NC(=O)CNC(=O)[C@H](CCC(=O)O)NC(=O)C(C)(C)NC(=O)C(C)(C)NC(=O)[C@@H](NC(=O)[C@H](CCCCNC(C)=O)NC(=O)[C@H](C)NC(=O)[C@H](CCCNC(=N)N)NC(=O)[C@@H](NC(=O)[C@H](CCCCN)NC(=O)[C@H](CCC(=O)O)NC(=O)[C@H](CCCNC(=N)N)NC(=O)CNC(=O)[C@H](CCC(=O)O)NC(=O)[C@H](CC(C)C)NC(C)=O)C(C)C)[C@@H](C)CC)[C@@H](C)O)C(N)=O)C(=O)O)C(=O)O)C(=O)O)C(=O)O [compound 170] (Ac-LEGREKVRAK(Ac)I[Aib][Aib]EGQSTFS[αMeK]RAK(Ac)[AEEA][AEEA][AEEA][AEEA]K([γGlu-γGlu-γGlu-γGlu-Palmitoyl])-NH2) | 0.01 | 87 |  |  |  | 7760 | 780 | 4 | 87 | 10 |  |  |  | 9800 (≈ 2280 µM) | > 10000 |
